Data reported in US20050203174A1, “Combination therapies using leptomycin B” (Kosan Biosciences, Inc., priority 2004, published 2005).

System: colon cancer cell line DLD-1
Test: Cell viability assay (CellTiter-Glo) and combination effect analysis of leptomycin B plus co-agent
Assay type: cell-based, Human
Conditions: combination with leptomycin B, DLD-1 cells, average CI over fraction affected 0.2 to 0.9; for Combination Index, LMB First: 24 hours of LMB, then drug added and incubated for 48 hours; for Combination Index, Co-Agent First: drug alone for 24 hours followed by addition of LMB for 48 hours; for Combination Index, Simultaneous: simultaneous exposure to LMB and drug for 72 hours, constant ratio of IC50s
Method: The efficacy of a combination of leptomycin B and specific chemotherapeutic co-agents was determined. The additive, synergistic, or antagonistic effect of the combination of leptomycin B and a co-agent was calculated for each administration regimen using Calcusyn software (Biosoft, Cambridge, United Kingdom). This software calculates a combination index using the following algorithm: CI=[D]1/[Dx]1+[D]2/[Dx]2 where • CI is the combination index; • [D]1 and [D]2 are the concentrations of the two agents being tested (i.e., LMB and the co-agent) that, in combination provide a response of x % in the assay; and • [Dx]1 and [Dx]2 are the concentrations of the two agents that, when used alone, produce a response of x % in the assay.
A CI value of one means the combined effect of the two agents is additive. A CI value of less than one means that the two agents act synergistically. A CI value of greater than one means that the two agents act antagonistically.
The area under the curve where the fraction affected of cells (FA) ranged from 0.2 to 0.9 was calculated, to generate average CI values as shown in Table 1 for colon cancer cell line DLD-1.
Human colon adenocarcinoma cell line, DLD-1, was obtained from American Type Culture Collection (Manassas, Va.). […] Leptomycin B was produced by fermentation of a high producing isolate from Streptomyces sp. […] LMB is also available from commercial sources, such as Sigma-Aldrich. Other anti-cancer agents were either purchased commercially (e.g., from Sigma Chemical Co. (St. Louis, Mo.) or from Sequoia Research Products (Oxford, UK)).
Cells were seeded in duplicate in 96-well microtiter plates at a density of 4,000 cells per well and allowed to attach overnight. Cells were treated with LMB and the corresponding cytotoxic drug at varying concentrations, ranging from 0.5 picomolar (“pM”) to 50 micromolar (“μM”), for 3 days. Cell viability was determined using the CellTiter-Glo luminescent cell viability assay (Promega). For the drug combination assay, cells were seeded in duplicate in 96-well plates (4,000 cells/well). […] Based on the IC50 values of each individual drug, combined drug treatment was designed at constant ratios of two drugs, i.e., equivalent to the ratio of their IC50. Three treatment schedules were used: The first schedule used simultaneous exposure to both LMB and drug for 72 hours. In the second schedule, the cells were exposed to 24 hours of LMB. The drug was then added to the cells and incubated for 48 hours. In the third schedule, cells were exposed to the drug alone for 24 hours followed by addition of LMB for 48 hours. Cell viability was determined by the CellTiter-Glo luminescent cell viability assay. Synergism, additivity, or antagonism was determined by median effect analysis using the combination index (CI) calculated using Calcusyn (Biosoft, Cambridge, UK), as described above.

## C/C1=C/C[C@@H](/C(C)=C/c2csc(C)n2)OC(=O)C[C@H](O)C(C)(C)C(=O)[C@H](C)[C@@H](O)[C@@H](C)CCC1 [Epo D, epothilone D]
  Combination Index, LMB First: 1.05 ± 0.03
  Combination Index, Co-Agent First: 0.92 ± 0.05
  Combination Index, Simultaneous: 1.06 ± 0.10

## C=CCNC1=C2C[C@@H](C)C[C@H](OC)[C@H](O)[C@@H](C)/C=C(\C)[C@H](OC(N)=O)[C@@H](OC)/C=C\C=C(/C)C(=O)NC(=CC1=O)C2=O [17-AAG, 17-allylamino-17-demethoxygeldanamycin]
  Combination Index, LMB First: 1.13 ± 0.05
  Combination Index, Co-Agent First: 0.91 ± 0.09
  Combination Index, Simultaneous: 1.15 ± 0.06

## CC(O)(CS(=O)(=O)c1ccc(F)cc1)C(=O)Nc1ccc(C#N)c(C(F)(F)F)c1 (stereo not drawn) [Bicalutamide, bicalutamide]
  Combination Index, LMB First: 1.48 ± 0.32
  Combination Index, Co-Agent First: 1.05 ± 0.02
  Combination Index, Simultaneous: 1.02 ± 0.01

## CC(=O)O[C@@]12CO[C@@H]1C[C@H](O)[C@@]1(C)C(=O)[C@H](O)C3=C(C)[C@@H](OC(=O)[C@H](O)[C@@H](NC(=O)OC(C)(C)C)c4ccccc4)C[C@@](O)([C@@H](OC(=O)c4ccccc4)[C@H]21)C3(C)C [Docetaxel, docetaxel]
  Combination Index, LMB First: 1.06 ± 0.04
  Combination Index, Co-Agent First: 0.95 ± 0.07
  Combination Index, Simultaneous: 1.19 ± 0.14

## COc1cccc2c1C(=O)c1c(O)c3c(c(O)c1C2=O)C[C@@](O)(C(=O)CO)C[C@@H]3O[C@H]1C[C@H](N)[C@H](O)[C@H](C)O1 [Doxorubicin, doxorubicin]
  Combination Index, LMB First: 0.96 ± 0.05
  Combination Index, Co-Agent First: 0.89 ± 0.01
  Combination Index, Simultaneous: 0.84 ± 0.12

## O=C(CCCCCCC(=O)Nc1ccccc1)NO [SAHA, suberoylanilide hydroxamic acid]
  Combination Index, LMB First: 0.91 ± 0.04
  Combination Index, Co-Agent First: 1.03 ± 0.11
  Combination Index, Simultaneous: 0.88 ± 0.04

## CCC1(c2ccc(N)cc2)CCC(=O)NC1=O (stereo not drawn) [Aminoglutethimide, aminoglutethimide]
  Combination Index, LMB First: 0.82 ± 0.05
  Combination Index, Co-Agent First: 1.02 ± 0.18
  Combination Index, Simultaneous: 0.89 ± 0.07

## Nc1ccn([C@@H]2O[C@H](CO)[C@@H](O)C2(F)F)c(=O)n1 [Gemcitabine, gemcitabine]
  Combination Index, LMB First: 1.18 ± 0.05
  Combination Index, Co-Agent First: 0.71 ± 0.31
  Combination Index, Simultaneous: 0.97 ± 0.25

## CCc1c2c(nc3ccc(OC(=O)N4CCC(N5CCCCC5)CC4)cc13)-c1cc3c(c(=O)n1C2)COC(=O)[C@]3(O)CC [Irinotecan, irinotecan]
  Combination Index, LMB First: 0.77 ± 0.05
  Combination Index, Co-Agent First: 0.50 ± 0.001
  Combination Index, Simultaneous: 0.92 ± 0.08

## CC[C@H](C)[C@@H](COC(Cc1ccccc1)C(=O)N[C@@H](CCS(C)(=O)=O)C(=O)OC(C)C)NC[C@@H](N)CS (stereo partly drawn) [L-744832]
  Combination Index, LMB First: 0.82 ± 0.05
  Combination Index, Co-Agent First: 0.86 ± 0.11
  Combination Index, Simultaneous: 0.84 ± 0.09
